Assay results reported in patent publication US20240009175A9, “TETRAZOLE DERIVATIVES” (Merck Patent GmbH, priority 2020, published 2024).

Legend:
[1] = target: ACSS2 (Homo sapiens (Human), UniProt Q9NR19); assay: Cellular assay of 14C acetate incorporation into fatty acids (IC50 ACSS2 cellular lipids); type: cell-based; settings: HCT-15 cells
Experimental: Cellular Assay of ^14C Acetate Incorporation into Fatty Acids (IC50 ACSS2 Cellular Lipids)
This protocol describes a cellular assay capable to quantify endogenous fatty acid synthesis activity in the human HCT-15 cancer cell line following the incorporation of extracellularly administered radiolabeled ^14C acetate with a scintillation proximity based read out on extracted fatty acids.
HCT-15 cells were grown in RPMI 1640 (Gibco) supplemented with 2 mM glutamine, 1 mM sodium pyruvate 10 mM HEPES and 10% FCS (heat-inactivated) passaged every 2-3 days to remain a subconfluent, vital culture. A working cell bank was prepared with each aliquot containing 1×10^7 viable cells. After thawing, these cells are dilute immediately 1:20 in pre-warmed (37° C.) culture medium. Cells are collected by centrifugation at 200×g for 5 min, and the supernatant is replaced by 30 mL of fresh culture medium per aliquot to obtain a cell suspension containing 350000 cells/ml. From this cell suspension 100 μL are dispersed into each well of a collagen coated 96 well plate, (black, clear bottom, PS, F-bottom, Greiner) and culture for 24 h (37° C., 5% CO2). After incubation the culture medium is removed and the wells are washed once with 100 μL PBS++(supplemented with Mg^2+/Ca^2+, Gibco) and 50 μL assay medium (RPMI 1640+10 mM HEPES) are added to each well. Compounds serial dilutions are prepared from 10 mM stock solutions in DMSO using a fixed dilution factor (usually 1:3). After preparation of the dilution series in DMSO, the individual dilutions are further diluted in the assay medium. This working dilution is prepared such, that the concentration is 7× of the final concentration in the assay. The maximal DMSO concentration in the final assay is 0.1%.
To each well 10 μL compound working dilution or DMSO blank are added and the cells are cultured for 2 h (37° C., 5% CO2). Then 10 μL AlamarBlue reagent (Invitrogen) containing 14 μCi/mL 14C-acetate (Perkin Elmer) are added to each well (70 μl total volume) and cells are again cultured for 2 h. Cell viability is verified by measuring the AlamarBlue fluorescence (Tecan Safire, ex: 544 nm/em: 590 nm). After incubation the culture medium is removed and the wells are carefully washed once with cold 100 μL PBS++. For cell lysis and fatty acid recovery 50 μl 0.1 M NaOH and 0.1% Triton-X100 are added per well. The plate is sealed with PlateLoc (clear peelable heat seal, Agilent) and incubate at 70° C. for 16-24 h. After cooling to room temperature, the plates are centrifuged for 1 min at 1000 rpm and the plate seals are removed. For acidification 150 μL 0.1 M HCl are added to each well, mixed and 150 μL of the mixture are transferred into a 96 well FlashPlate (Perkin Elmer). The plates are sealed with TopSeal-A (Perkin Elmer). To allow for the fatty acid binding to the well surfaces the plates are incubate for 4 h at 70° C. After cooling to room temperature, the plates are centrifuged for 1 min at 1000 rpm and stored for 0.5-2h at room temperature in the dark. Radioactivity from ^14C incorporation into fatty acids in the wells is measured as CPM count in a MicroBeta scintillation counter (Perkin Elmer).

[2] = target: human rec ACSS2 (Homo sapiens (Human), UniProt Q9NR19); assay: Biochemical activity ACSS2 assay (AMP-Glo); settings: human recombinant ACSS2, AMP-Glo, 180 min at 37° C.
Procedure, shortened: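 1 nM C-term myc-tagged recombinant human ACSS2 with 100 μM ATP, 100 μM Coenzyme A and 500 μM acetate (final concentrations), pH 7.5, 180 min at 37° C, compound from 30 μM over 10 concentrations. Released AMP quantified by AMP-Glo luminescence; zero set with 5 μM reference ACSS2 inhibitor, IC50 derived.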

[3] = test system: CHO-K1 cells; assay: Micronucleus assay (MNT) in vitro; type: cell-based; set-up: key: A: negative, putative negative (micronuclei detected beyond threshold of 60% cyctotoxicity); B: positive; settings: 24 hrs treatment, 0.2 μM to 100 μM

ACSS2, sequence (Q9NR19 whole entry): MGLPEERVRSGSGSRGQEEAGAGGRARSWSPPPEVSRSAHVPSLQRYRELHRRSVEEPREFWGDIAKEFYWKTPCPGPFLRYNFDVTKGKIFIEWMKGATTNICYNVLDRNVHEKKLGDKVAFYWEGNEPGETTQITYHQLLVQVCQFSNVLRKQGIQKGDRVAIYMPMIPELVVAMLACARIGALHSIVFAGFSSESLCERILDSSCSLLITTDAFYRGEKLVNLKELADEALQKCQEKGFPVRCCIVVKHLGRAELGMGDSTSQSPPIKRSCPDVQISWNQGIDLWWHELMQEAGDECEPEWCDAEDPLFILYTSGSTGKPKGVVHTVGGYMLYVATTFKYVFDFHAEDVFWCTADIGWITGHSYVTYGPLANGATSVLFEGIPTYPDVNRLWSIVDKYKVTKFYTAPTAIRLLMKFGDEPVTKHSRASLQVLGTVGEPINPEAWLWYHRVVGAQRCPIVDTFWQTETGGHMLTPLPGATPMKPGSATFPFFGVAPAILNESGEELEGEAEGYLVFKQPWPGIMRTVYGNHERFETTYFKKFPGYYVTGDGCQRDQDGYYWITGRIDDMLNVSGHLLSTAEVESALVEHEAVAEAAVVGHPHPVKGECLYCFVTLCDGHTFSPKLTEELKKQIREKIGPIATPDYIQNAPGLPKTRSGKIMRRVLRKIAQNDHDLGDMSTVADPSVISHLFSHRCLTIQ
human rec ACSS2, sequence (Q9NR19 whole entry): as above

| SMILES | IC50 [1] [nM] | IC50 [2] [nM] | MNT [3] |
| --- | --- | --- | --- |
| CCn1c(C(O)(c2ccccc2)c2cccs2)nc2nc(OC)c(-c3nnn[nH]3)cc21 (racemic) [Compound 35, [1-ethyl-5-methoxy-6-(1H-1,2,3,4-tetrazol-5-yl)-1H-imidazo[4,5-b]pyridin-2-yl](phenyl)(thiophen-2-yl)methanol] | 0.01 to 1 | 1 to 10 | A |
| CCn1c(C(O)(c2ccccc2)c2ccccn2)nc2nc(OC)c(-c3nnn[nH]3)cc21 (racemic) [Compound 50, [1-ethyl-5-methoxy-6-(1H-1,2,3,4-tetrazol-5-yl)-1H-imidazo[4,5-b]pyridin-2-yl](phenyl)(pyridin-2-yl)methanol] | 0.01 to 1 | 1 to 10 | A |
| CCc1c(C(O)(c2ccccc2)c2ccccc2)nc2cc(F)c(-c3nnn[nH]3)cn12 [Compound 3, [3-Ethyl-7-fluoro-6-(1H-tetrazol-5-yl)-imidazo[1,2-a]pyridin-2-yl]-diphenyl-methanol] | 10 to 100 | 1 to 10 | A |
